Reference: paper PMC9901219 (European Journal of Medicinal Chemistry, 2023)

Key:
SARS-CoV-2 3CLpro [1] = target: T1, SARS-CoV-2 3CLpro (Severe acute respiratory syndrome coronavirus 2, UniProt P0DTD1); assay: biochemical
Human Calpain 1 = target: T2, Human Calpain 1 (Homo sapiens, UniProt P07384); assay: Calpain assay; type: biochemical
T2 sequence (P07384 1-714): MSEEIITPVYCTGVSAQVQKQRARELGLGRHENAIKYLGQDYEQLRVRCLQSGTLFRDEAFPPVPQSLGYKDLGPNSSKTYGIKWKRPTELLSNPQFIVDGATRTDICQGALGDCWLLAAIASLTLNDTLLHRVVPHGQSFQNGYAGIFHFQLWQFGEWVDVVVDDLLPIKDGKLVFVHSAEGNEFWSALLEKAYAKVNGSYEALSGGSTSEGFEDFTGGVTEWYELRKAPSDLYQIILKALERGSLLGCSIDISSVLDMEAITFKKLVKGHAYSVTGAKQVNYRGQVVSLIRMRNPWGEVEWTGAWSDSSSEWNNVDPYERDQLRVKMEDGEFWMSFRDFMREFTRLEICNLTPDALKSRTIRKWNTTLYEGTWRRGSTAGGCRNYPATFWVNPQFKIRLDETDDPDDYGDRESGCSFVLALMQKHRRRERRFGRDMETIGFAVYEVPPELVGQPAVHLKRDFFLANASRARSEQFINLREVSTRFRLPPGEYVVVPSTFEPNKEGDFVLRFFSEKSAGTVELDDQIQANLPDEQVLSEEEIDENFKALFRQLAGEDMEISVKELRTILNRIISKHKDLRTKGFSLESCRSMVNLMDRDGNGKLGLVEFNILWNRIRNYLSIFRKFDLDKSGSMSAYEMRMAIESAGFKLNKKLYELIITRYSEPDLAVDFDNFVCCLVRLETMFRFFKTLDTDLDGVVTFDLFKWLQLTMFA
T2 sequence (P04632 1-268 partner): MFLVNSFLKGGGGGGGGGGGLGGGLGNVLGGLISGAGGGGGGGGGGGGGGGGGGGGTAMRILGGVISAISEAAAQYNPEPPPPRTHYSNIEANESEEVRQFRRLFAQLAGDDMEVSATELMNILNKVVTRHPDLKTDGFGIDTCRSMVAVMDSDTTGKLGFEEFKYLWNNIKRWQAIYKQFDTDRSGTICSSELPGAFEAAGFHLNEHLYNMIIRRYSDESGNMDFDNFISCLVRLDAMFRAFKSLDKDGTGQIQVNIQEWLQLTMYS

Cathepsin L = Cathepsin L (Homo sapiens, UniProt P07711); type: biochemical; conditions: calpain 1 and cathepsin L versus SARS-CoV-2 3CLpro
SARS-CoV-2 3CLpro [2] = target: T1, SARS-CoV-2 3CLpro; type: binding
SARS-CoV-2 3CLpro [3] = target: T1, SARS-CoV-2 3CLpro; type: biochemical
[4] = Stability of compound in enzymatic assay buffer with GSH; type: physicochemical

Sequence of Cathepsin L (P07711 114-333): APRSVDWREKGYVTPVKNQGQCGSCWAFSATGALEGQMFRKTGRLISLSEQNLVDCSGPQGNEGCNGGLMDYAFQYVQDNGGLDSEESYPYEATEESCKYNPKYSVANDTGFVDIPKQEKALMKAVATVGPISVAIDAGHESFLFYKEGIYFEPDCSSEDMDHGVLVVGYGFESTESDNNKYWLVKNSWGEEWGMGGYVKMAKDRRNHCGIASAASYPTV

Which “Assay without GSH pIC50 ± SD” value (SARS-CoV-2 3CLpro [1]) does the source give for Cc1cccc2nc(CSC(=S)NCc3cccnc3)cn12 [Compound 1, (5-methylimidazo[1,2-a]pyridin-2-yl)methyl (pyridin-3-ylmethyl)carbamodithioate] here?
The value was 7.67 ± 0.30.

What about the “SARS-CoV-2 (Beta-CoV) 3CLpro pIC50 ± SD” value (SARS-CoV-2 3CLpro [1]) of the same molecule?
Its value is 0.021 (7.67 ± 0.30).

What about the IC50 (SARS-CoV-2 3CLpro [1]; SARS-CoV-2 3CLpro IC50) of the same molecule?
The IC50 was 1.75 µM.

What about the IC50 (Human Calpain 1) of the same molecule?
Its IC50 is greater than 300 µM.

And the “Human Calpain 1 pIC50 ± SD” value (Human Calpain 1; GSH 2 mM, pre-incubation of 30 min)?
Its value is greater than 3.52.

And the “selectivity over two human cysteine proteases” value (Cathepsin L)?
Its value is “more than 80 fold”.

And the “Thermal shift ΔTm of SARS-CoV-2 3CLpro with GSH” value (SARS-CoV-2 3CLpro [2])?
The value was 11.33 °C.

What about the “enzyme inhibition after jump dilution” value (SARS-CoV-2 3CLpro [3]) of the same molecule?
Its value is “around 80%”.

And the “enzyme inhibition after jump dilution (words)” value (SARS-CoV-2 3CLpro [3])?
The value was “no more inhibition”.

What about the “time within which inhibition is reversible” value (SARS-CoV-2 3CLpro [3]) of the same molecule?
The value was no more than 2 h.

And the “disappearance of the compound” value ([4]; 100 μM in enzymatic assay buffer, 2 mM GSH, 1.5 h incubation)?
The value was “less than 10%”.

And the “reaction conversion with GSH” value ([4]; after 90 min, GSH 2 mM)?
The value was less than 10%.

For Cc1cccc2nc(CNC(=S)NCc3cccnc3)cn12 [Compound 1A, 1-((5-methylimidazo[1,2-a]pyridin-2-yl)methyl)-3-(pyridin-3-ylmethyl)thiourea], which “Assay without GSH pIC50 ± SD” value (SARS-CoV-2 3CLpro [1]) is on record?
Its value is 4.46 ± 0.19.

What about the “inhibitory effect on SARS-CoV-2 3CLpro” value (SARS-CoV-2 3CLpro [1]) of the same molecule?
Its value is “inactive”.

Which “fold lower potency compared to compound 1” value (SARS-CoV-2 3CLpro [1]) does the source give for CCSC(=S)NCc1cccnc1 [Compound 1B, Ethyl (pyridin-3-ylmethyl)carbamodithioate] here?
The value was 8 fold.

Which “inhibitory effect on SARS-CoV-2 3CLpro” value (SARS-CoV-2 3CLpro [1]) does the source give for S=C(NCc1cccnc1)OCc1ccccc1 [Compound 1D, O-benzyl(pyridin-3-ylmethyl)carbamothioate] here?
The value was “inactive”.

For CC(=O)[O-].CC(=O)[O-].[Zn+2] [zinc acetate, reference compound], which “inhibitory activity in presence of zinc chelator EDTA” value (SARS-CoV-2 3CLpro [1]) is on record?
Its value is “completely loose its inhibitory activity”.
